Patent publication EP1044000B1, “COMBINATION THERAPY FOR THE TREATMENT OF AIDS” (MERCK & CO., INC., priority 1997, dated 1999)

Columns and labels:
Assay type in all cases: in vivo
[1] = Pharmacokinetic study of Compound A in combination with Indinavir with and without fasting (Example 12); conditions: male, human, plasma, 600 mg Compound A (tablets) + 666 mg IDV (Indinavir), n=7; for concentration at 8 h / concentration at 12 h / concentration at 24 h: oral; for concentration at 8 h: plasma 8 hours after dosing, read-out: C8 hrs; for concentration at 12 h: plasma 12 hours after dosing, read-out: C12 hrs; for concentration at 24 h: plasma 24 hours after dosing, read-out: C24 hrs; for Cmax / Tmax / AUC: po, single oral dose; for Cmax / Tmax: arithmetic mean; for AUC: arithmetic mean (CV %)
Procedure: All of the subjects received the regimen once in the fasted state and once with a high-fat breakfast. The two single-dose treatments (fasted, fed) were administered in randomized crossover fashion, separated by one week. For treatments with food a breakfast consisting of two eggs, two strips of bacon, toast with two pats of butter (2 x 12.5 g), 120 g of fried potatoes and 240 ml of whole milk were consumed in no more than 15 minutes, and the test medication was administered within 5 minutes after completion of the breakfast. […] All of the doses of Compound A were administered as the sulfate salt form of Compound A. All of the Compound A doses were tablets containing 200 mg of Compound A. Other ingredients in the tablets included microcrystalline cellulose (Avicel PH 101), mannitol SD 200, croscarmellose sodium, hydroxypropyl cellulose and magnesium stearate. The tablets were film coated with a suspension of hydroxypropyl methylcellulose, hydroxypropyl cellulose and titanium dioxide. The safety of the subjects was monitored prior and subsequent to dosing by clinical adverse event reporting, measurement of vital signs, physical examinations, blood and urine laboratory safety tests, and ECGs. Plasma concentrations of Compound A were determined predose and at 0.5, 1, 1.5, 2, 3, 4, 6, 8, 12, 16, 20, 24, 30, 36 and 48 hours following each single dose in each period, using a reverse-phase HPLC column switching method with fluorescence detection.

[2] = Pharmacokinetic study of Compound A in healthy human males (Example 10); conditions: male, plasma, po, suspension of sulfate salt; for Tmax: mean of 6 subjects; for Cmax / AUC: mean of 6 subjects (CV %); for concentration at 8 h: plasma 8 hours after dosing, read-out: C8 hrs; for concentration at 12 h: plasma 12 hours after dosing, read-out: C12 hrs
Procedure: A double-blind, single-rising dose, alternating two-panel, four-period, placebo-controlled study was conducted for Compound A in healthy adult males in the fasted state. Single doses of 20, 50, 100, 200, 400, 800 and 1200 mg of Compound A, or placebo, were administered as an oral suspension of the sulfate salt form of Compound A in sterile water. Each subject received increasing single oral doses of Compound A or placebo during each of the four treatment periods in alternate panels. Panel A dosage levels were 20, 100, 400 mg, and 400 mg with food. Panel B dosage levels were 50, 200, 800 and 1200 mg. For each period, 6 subjects received Compound A and 2 subjects received placebo as allocated by a randomized schedule. In Panel A, subjects who received 400 mg of Compound A also received 400 mg of Compound A with food. The safety of the subjects was monitored prior and subsequent to dosing by clinical adverse event reporting, measurement of vital signs, physical examinations, blood and urine laboratory safety tests, and ECGs. […]

[3] = Pharmacokinetic study of Compound A alone and in combination with Indinavir in healthy human males (Example 11); conditions: for Cmax / Tmax / AUC / concentration at 8 h / concentration at 12 h / concentration at 24 h: male, human, plasma, po, fasted; for Cmax / Tmax: arithmetic mean; for AUC: arithmetic mean (CV %); for concentration at 8 h: plasma 8 hours after dosing, read-out: C8 hrs; for concentration at 12 h: plasma 12 hours after dosing, read-out: C12 rs; for concentration at 24 h: plasma 24 hours after dosing, read-out: C24 hrs
Procedure: A double-blind, single-rising dose, alternating two-panel, four-period, placebo-controlled study was conducted for Compound A alone and in combination with Indinavir in healthy adult males in the fasted state. […] All of the doses of Compound A were administered as the sulfate salt form of Compound A. All of the Compound A doses were oral suspensions of the sulfate salt form in sterile water, except that the 600-mg doses administered to Panel B in the fourth period were tablets. Indinavir was administered in the form of CRIXIVAN® capsules. The safety of the subjects was monitored prior and subsequent to dosing by clinical adverse event reporting, measurement of vital signs, physical examinations, blood and urine laboratory safety tests, and ECGs. Plasma concentrations of Compound A were determined predose and at 0.5, 1, 1.5, 2, 3, 4, 6, 8, 12, 16, 20, 24, 30, 36 and 48 hours following each single dose in each period, using a reverse-phase HPLC column switching method with fluorescence detection.

[4] = 50 mg, 50 mg single oral dose, fasted
[5] = 100 mg, 100 mg single oral dose, fasted
[6] = 200 mg, 200 mg single oral dose, fasted
[7] = 400 mg, 400 mg single oral dose, fasted
[8] = 400 mg, 400 mg single oral dose, fasted, CV not determinable
[9] = 400 mg, 400 mg w/food, single oral dose
[10] = 800 mg, 800 mg single oral dose, fasted
[11] = 800 mg, 800 mg single oral dose, fasted, mean (CV %)
[12] = 1200 mg, 1200 mg single oral dose, fasted
[13] = 1200 mg, 1200 mg single oral dose, fasted, mean (CV %)
[14] = 200 mg of Compound A with 800 mg of Indinavir relative to 200 mg of Compound A alone (Table 3 vs Table 2)
[15] = 200 mg Compound A + 800 mg IDV (Indinavir) co-administered, single oral dose, n=6
[16] = 200 mg Compound A + 1200 mg IDV (Indinavir) co-administered, single oral dose, n=6
[17] = 400 mg Compound A + 800 mg IDV (Indinavir) co-administered, single oral dose, n=6
[18] = 600 mg Compound A + 800 mg IDV (Indinavir) co-administered, single oral dose, n=8
[19] = 600 mg, 600 mg (tablets) single oral dose, sulfate salt, n=8
[20] = 600 mg, 600 mg single oral dose, suspension of sulfate salt, n=8
[21] = 1600 mg, 1600 mg single oral dose, suspension of sulfate salt, n=6
[22] = 2000 mg, 2000 mg single oral dose, suspension of sulfate salt, n=8

## CC(C)(C)NC(=O)[C@@H]1CN(Cc2cc3ccccc3o2)CCN1C[C@@H](O)C[C@@H](Cc1ccccc1)C(=O)N[C@H]1c2ccccc2C[C@H]1O [Compound A, N-(2(R)-hydroxy-1(S)-indanyl)-2(R)-phenylmethyl-4-(S)-hydroxy-5-(1-(4-(2-benzo[b]furanylmethyl)-2(S)-N'-(t-butylcarboxamido)-piperazinyl))-pentaneamide]
[1]; fasted
  concentration at 8 h: 583 nM
  concentration at 12 h: 188 nM
  concentration at 24 h: 37 nM
  Cmax: 2.92 µM
  Tmax: 2.6 h
  AUC: 15.7 µM·h
[1]; fed (high-fat breakfast)
  concentration at 8 h: 1320 nM
  concentration at 12 h: 433 nM
  concentration at 24 h: 58 nM
  Cmax: 4.23 µM
  Tmax: 3.7 h
  AUC: 25.3 µM·h
[2]; [4]
  Tmax: 0.6 h
  Cmax: 12 nM
[2]; [5]
  Tmax: 0.5 h
  Cmax: 36 nM
[2]; [6]
  Tmax: 0.7 h
  AUC: 0.24 µM·h
  Cmax: 85 nM
[2]; 200 mg, 200 mg single oral dose, fasted, CV not determinable
  concentration at 8 h: 5 nM
[2]; [7]
  Tmax: 1.8 h
  AUC: 0.66 µM·h
  Cmax: 166 nM
[2]; [8]
  concentration at 8 h: 15 nM
  concentration at 12 h: 6 nM
[2]; [9]
  Tmax: 4 h
  AUC: 0.8 µM·h
  Cmax: 170 nM
[2]; 400 mg, 400 mg w/food, single oral dose, mean (CV %)
  concentration at 8 h: 32 nM
[2]; 400 mg, 400 mg w/food, single oral dose, CV not determinable
  concentration at 12 h: 7 nM
[2]; [10]
  Tmax: 2.6 h
  AUC: 3.09 µM·h
  Cmax: 568 nM
[2]; [11]
  concentration at 8 h: 126 nM
  concentration at 12 h: 45 nM
[2]; [12]
  Tmax: 2.1 h
  AUC: 7.28 µM·h
  Cmax: 1350 nM
[2]; [13]
  concentration at 8 h: 338 nM
  concentration at 12 h: 128 nM
[3]; [14]
  AUC of Compound A higher for co-administration with Indinavir relative to Compound A alone: about 30 x
  C8 hrs higher for co-administration with Indinavir relative to Compound A alone: ~46 x
  Cmax higher for co-administration with Indinavir relative to Compound A alone: about 19 x
[3]; 600 mg of Compound A in combination with 800 mg of Indinavir versus Compound A alone
  AUC higher than for administration of Compound A alone: about 18 fold
[3]; [15]
  Cmax: 1580 nM
  Tmax: 2.2 h
  AUC: 7.45 µM·h
  concentration at 8 h: 232 nM
  concentration at 12 h: 70 nM
  concentration at 24 h: 8 nM
[3]; [16]
  Cmax: 1560 nM
  Tmax: 2.3 h
  AUC: 9.22 µM·h
  concentration at 8 h: 416 nM
  concentration at 12 h: 107 nM
  concentration at 24 h: 10 nM
[3]; [17]
  Cmax: 2350 nM
  Tmax: 2.5 h
  AUC: 12.2 µM·h
  concentration at 8 h: 399 nM
  concentration at 12 h: 124 nM
  concentration at 24 h: 20 nM
[3]; [18]
  Cmax: 3880 nM
  Tmax: 3.3 h
  AUC: 25.2 µM·h
  concentration at 8 h: 1190 nM
  concentration at 12 h: 352 nM
  concentration at 24 h: 65 nM
[3]; [19]
  Cmax: 211 nM
  Tmax: 1.5 h
  AUC: 1.42 µM·h
  concentration at 8 h: 50 nM
  concentration at 12 h: 38 nM
  concentration at 24 h: 17 nM
[3]; [20]
  Cmax: 208 nM
  Tmax: 1.4 h
  AUC: 1.41 µM·h
  concentration at 8 h: 55 nM
  concentration at 12 h: 39 nM
  concentration at 24 h: 13 nM
[3]; [21]
  Cmax: 613 nM
  Tmax: 2 h
  AUC: 4.72 µM·h
  concentration at 8 h: 163 nM
  concentration at 12 h: 93 nM
  concentration at 24 h: 46 nM
[3]; [22]
  Cmax: 1270 nM
  Tmax: 2.5 h
  AUC: 10.4 µM·h
  concentration at 8 h: 444 nM
  concentration at 12 h: 250 nM
  concentration at 24 h: 105 nM
